In article PMC9608142, “Population pharmacokinetic analysis, renal safety, and dosing optimization of polymyxin B in lung transplant recipients with pneumonia: A prospective study” (Frontiers in Pharmacology, 2022):
Read-outs that look alike come from different tables or passages of the source. Bridge positions count the residues as written; N and C are the ends. Square brackets hold non-standard residues; d marks the D form. Peptide text beside a SMILES is read from it. * marks the point of attachment. X1 = CC[C@H](C)CCCCC(=O)*; Dab = NCC[C@H](N)C(=O)O

Legend:
[1] = Population pharmacokinetic analysis (NONMEM) of polymyxin B plasma concentrations in lung transplant recipients; format: in vivo, human
Text: (§1) This prospective study was approved by the Ethical Committees of the affiliated Wuxi People’s Hospital of Nanjing Medical University, China (KS202002), in accordance with the Declaration of Helsinki. The informed consent was obtained from each patient or his/her legal representatives. Adult lung transplant recipients receiving polymyxin B sulfate against confirmed MDR Gram-negative bacterial infections at the affiliated Wuxi People’s Hospital of Nanjing Medical University, from January 2020 to December 2021, were included in this study. The inclusion criteria were as follows: 1) ≥18 years old; 2) diagnosis of pneumonia; 3) receiving polymyxin B therapy for at least 3 days; 4) having at least one plasma concentration of polymyxin B. The exclusion criteria were as follows: 1) allergic or intolerant to polymyxin B; 2) died within 24 h after being treated with polymyxin B.
(§2) The decision to administer polymyxin B (sulfate, Polymyxin B for Injection, Shanghai Number one Biochemical and Pharmaceutical, Shanghai, China) and its medication, including the amount, dosing interval, administration route, and treatment duration, were decided by the attending physician. Generally, the loading dose of 2.0–2.5 mg/kg, and the maintenance dose of 1.25–1.5 mg/kg given every 12 h infused over 1 h was recommended according to the guideline for optimizing polymyxins ([Tsuji et al., 2019]). In addition, inhalation of polymyxin B sulfate (25 mg q12h) was combinedly used.
All the blood samples were collected at least 48 h after initiating polymyxin B ([Tsuji et al., 2019]). In each patient, four blood samples were collected: 0.5 h before starting the infusion, 1, 2, and 6 h after completing the infusion, respectively. After sampling, blood samples were immediately centrifuged at 15,000 rpm for 5 min and stored at −80°C. The concentrations of polymyxin B in the blood samples were determined by a validated high-performance liquid chromatography-tandem mass spectrometry (LC-MS/MS) assay ([Thomas et al., 2012]). The calibration range of polymyxin B by the method was 0.1–30 μg/ml. The method validations including selectivity, recovery, precision, accuracy, matrix effect, calibration curve, and stability met the requirement of FDA principles.
Nonlinear mixed-effects modeling (NONMEM) program (version 7.4, Icon Development Solutions, Ellicott City, MD, United States) and Pirana (version 2.9.7) was used to perform PK analysis of polymyxin B. R (Version 3.6.1) was used to analyze the NONMEM output. The first-order conditional estimation with the interaction between inter-patient variability and residual variability was used for model development.
One- or two-compartment structural model with first-order elimination were explored for the concentration-time profiles. Visual inspection of diagnostic plots and goodness-of-fit criteria, condition number, and improvement of the objective function value (OFV) were performed to evaluate the base model. The pharmacokinetic parameters used for this study were clearance (CL) and volume of distribution (V). Between-subject variability (BSV) was assessed using the exponential model (Eq. 1). Pi=P×EXP(ETA( ηi)) (1) Pi was the individual patient PK parameter; P was the typical value; ηi was the interpatient random variation.
Residual variability was assessed by additive (Eq. 2), proportional (Eq. 3), or combined (additive plus proportional) (Eq. 4) error models, respectively. The optimal one was chosen based on the decrease in OFV. Y=F+EPS (1) (2) Y=F+F×EPS (1) (3) Y=F+F×EPS (1)+EPS(2) (4) Y was the individual observed concentration; F was the individual predictive concentration; EPS was the residual random variation.
Relationships between the potential covariates and individual PK parameters were examined visually. […]

[2] = parenteral polymyxin B, mouse infection studies; ref Nang et al., 2021; cited from earlier work
Text: The urinary recovery of polymyxin B is low and non-renal clearance is considered the major route of the clearance of polymyxin B ([Tsuji et al., 2019]), but it undergoes extensive reabsorption by renal tubular cells ([Nang et al., 2021]).

[3] = test system: carbapenem-resistant organisms (A. baumannii, P. aeruginosa, K. pneumoniae, E. cloacae); test: Clinical treatment efficacy and microbiological efficacy in lung transplant recipients with pneumonia; format: in vivo, human
Text: as §1
The demographic characteristics, laboratory data, pathogenic bacteria, medication information, and adverse events of polymyxin B sulfate were acquired from the patients’ medical records. Clinical success was defined as improvement of clinical symptoms and parameters including body temperature, biochemistry indicators of infection (white cell count ≤ 10^9, C-reactive protein ≤10 mg/L, procalcitonin <0.05 ng/ml, and erythrocyte sedimentation rate <15 mm/h), and clinician-documented improvement at the end of treatment ([Yu et al., 2022]). RIFLE (Risk, Injury, Failure, Loss of function, and End-stage kidney disease) criteria were used to assess the acute kidney injury (AKI) caused by polymyxin B ([Han et al., 2022]). The definition of nephrotoxicity caused by polymyxin B was further confirmed using the Naranjo criteria. Hyperpigmentation is defined as the darkening of the skin’s natural color, usually due to an increase in melanin deposition in the epidermis or dermis ([Lu and Hou, 2020]).
as §2

[4] = cited from earlier work
Text: Supplement DataSheet1.docx, table 2: Table S2. […] The urinary recovery of polymyxin B is low and non-renal clearance is considered the major route of the clearance of polymyxin B ([Tsuji et al., 2019]), but it undergoes extensive reabsorption by renal tubular cells ([Nang et al., 2021]). […] The ratio of the area of unbound concentration-time curve to the MIC (fAUC/MIC) is the best PK/PD index predicting bacterial killing for polymyxins ([Dudhani et al., 2010a]; [Dudhani et al., 2010b]; [Cheah et al., 2015]). The fAUC/MIC value ≥20 at various MICs (0.5–2 mg/L) was used as the target ([Sandri et al., 2013]), where f (assumed to be 0.42) is the unbound fraction of polymyxin B ([Sandri et al., 2013]). The probability of target attain ... || (+ 2 further places)

P. aeruginosa = details: thigh infection model, ref Cheah et al., 2015; cited from earlier work
Description: (§3) This is the first study to simulate the PTA and AUCss,24h of different dosage regimens in lung transplant patients. In vitro and animal studies pointed out that fAUC/MIC is the PK/PD index that is best correlated with the efficacy of polymyxins ([Tsuji et al., 2019]). In the thigh infection model, the fAUC/MIC values of colistin for 2log10 bacterial killings were approximately 20 for P. aeruginosa and Acinetobacter Baumannii ([Cheah et al., 2015]). Therefore, considering the similar molecular structures and in vitro activity of colistin and polymyxin B, the fAUC/MIC ≥20 was determined as the P ...

Acinetobacter Baumannii = details: thigh infection model, ref Cheah et al., 2015; cited from earlier work
Description: as §3

[5] = bootstrap of final model, median estimate, 1,000 replicates
[6] = adult patients, n = 35, 1 CMT, ref Manchandani et al. 2018 [29]
[7] = adult patients, n = 43, 1 CMT, ref Kubin et al. 2018 [31]
[8] = adult patients, n = 46, 2 CMT, ref Wang et al. 2020 [27]
[9] = adult patients, n = 52, 2 CMT, ref Miglis et al. 2018 [28]
[10] = adult patients, n = 52, ref Miglis et al. 2018 [28]
[11] = critically ill patients, n = 24, 2 CMT, ref Sandri et al. 2013 [22]

CC[C@H](C)CCCCC(=O)N[C@@H](CCN)C(=O)N[C@H](C(=O)N[C@@H](CCN)C(=O)N[C@H]1CCNC(=O)[C@H]([C@@H](C)O)NC(=O)[C@H](CCN)NC(=O)[C@H](CCN)NC(=O)[C@H](CC(C)C)NC(=O)[C@@H](Cc2ccccc2)NC(=O)[C@H](CCN)NC1=O)[C@@H](C)O [polymyxin B] (X1-[Dab]T[Dab][Dab][Dab][dF]L[Dab][Dab]T; lactam 4-C)
θCL, typical value of clearance [1, 5]: 1.72 L/h
θV, typical value of volume of distribution [1, 5]: 14.3 L
effect of concomitant furosemide or albumin on the PK of polymyxin B ([1]; covariate test in lung transplant recipients, limited number of patients): did not significantly affect the PK
θV, typical value of volume of distribution ([1]; final model estimate, 1-compartment): 14.4 L
CrCL on CL (θ1), exponential value for CrCL as covariate of CL ([1]; final model estimate, CrCL/78.49): 0.681
clearance ([1]; human, plasma, iv, base model estimate (no covariate), read-out: TVCL, typical value of clearance (converted)): 27.5 mL/min
clearance ([1]; human, plasma, iv, final model estimate, 1-compartment, first-order elimination, at median CrCL 78.49 ml/min, read-out: θCL, typical value of clearance (converted)): 28.7 mL/min
clearance ([1]; human, plasma, iv, present study, lung transplant patients, n = 34, read-out: CL (PK Parameters) (converted)): 31.2 mL/min
Vd ([1]; human, plasma, iv, base model estimate, read-out: TVV, typical value of volume): 14.6 L
AUC ([1]; mean ± SD, 34 lung transplant recipients, AUC0-24 by linear-log trapezoidal rule from Bayesian-predicted concentrations, SD): 69660 ± 35920 ng·h/mL
penetration in the lungs [2]: poor penetration in the lungs
Clinical anti-infective outcome: Failed ([3]; 5 of 34 patients, iv plus inhaled polymyxin B): 5 (14.71%)
Clinical anti-infective outcome: Cured ([3]; 12 of 34 patients, iv plus inhaled polymyxin B, treatment 17.94 ± 7.13 days): 12 (35.29%)
Clinical anti-infective outcome: Improved ([3]; 17 of 34 patients, iv plus inhaled polymyxin B): 17 (50%)
patients considered of clinical cure or improved ([3]; 29 of 34 patients, end of treatment): 85.29%
CL, typical value in PK formula ([4]; adult critically ill patients, n = 32, 1 CMT, CL = 1.59+(CrCL/80)^0.408, ref Yu et al. 2021 [26]): 1.59 L/h
V ([4]; adult critically ill patients, n = 32, 1 CMT, ref Yu et al. 2021 [26]): 20.5 L
CL (PK Parameters) ([4]; adult critically ill patients, n = 32, ref Yu et al. 2021 [26]): 1.75 L/h
CL in PK formula [4, 6]: 2.5 L/h
V [4, 6]: 34.3 L
CL (PK Parameters), mean ([4]; adult patients, n = 35, mean, ref Manchandani et al. 2018 [29]): 2.5 L/h
CL in PK formula [4, 7]: 2.37 L/h
V [4, 7]: 33.4 L
Q [4, 8]: 13.518 L/h
V [4, 8]: 6.218 L
V2 [4, 8]: 11.922 L
CL, typical value in PK formula ([4]; adult patients, n = 46, 2 CMT, ×(CrCL/105.9)^0.362, ref Wang et al. 2020 [27]): 1.786 L/h
CL (PK Parameters), median ([4]; adult patients, n = 46, median, ref Wang et al. 2020 [27]): 1.786 L/h
Q [4, 9]: 2.32 L/h
Vc [4, 9]: 33.77 L
Vp [4, 9]: 78.20 L
CL, typical value in PK formula ([4]; adult patients, n = 52, 2 CMT, ×(TBW/75)^0.75, ref Miglis et al. 2018 [28]): 2.63 L/h
CL (PK Parameters) [4, 10]: 2.63 ± 1.41 L/h
V (PK Parameters) [4, 10]: 33.77 ± 15.21 L
f, unbound fraction of polymyxin B ([4]; assumed value used for fAUC/MIC, ref Sandri et al., 2013): 0.42
effect of inhalation therapy on the exposure of polymyxin B in blood ([4]; co-inhalation 25 mg q12h, critically ill patients, ref Yu et al., 2021): did not significantly increase the exposure
CLic [4, 11]: 2.43 mL/min/kg
V1 [4, 11]: 0.0939 L/kg
V2 [4, 11]: 0.330 L/kg
CL, typical value in PK formula ([4]; critically ill patients, n = 24, 2 CMT, ×(TBW/75)^0.75, ref Sandri et al. 2013 [22]): 0.46 mL/min/kg
urinary recovery ([4]; non-renal clearance considered the major route, ref Tsuji et al., 2019): low
CL, typical value in PK formula ([4]; renal transplant patients, n = 50, 1 CMT, CL = 1.18×(CrCL/22.2)^0.14, ref Li et al. 2021 [14]): 1.18 L/h
V ([4]; renal transplant patients, n = 50, 1 CMT, ref Li et al. 2021 [14]): 12.09 L

colistin
fAUC/MIC value for 2log10 bacterial killings (P. aeruginosa): approximately 20
fAUC/MIC value for 2log10 bacterial killings (Acinetobacter Baumannii): approximately 20
